{"source": "patent US11712430B2", "about": "“Formulated cannabis oil powder by nanoemulsification, methods of producing and uses thereof” (KARNAK TECHNOLOGIES, LLC, priority 2018, dated 2023)", "assay": "Complete dissolution of agents to obtain the aqueous phase", "assay_type": "physicochemical", "conditions": "as in Example 1, Stage 1", "description": "0.25 gr ammonium glycyrrhizinate, (Sigma, 50531-50G, cas: 53956-04-0), 2 gr Maltodextrin, (Sigma, 419699-500G, cas: 9050-36-6), 2 gr sucrose, (Sigma, 59378-500G, cas: 57-50-1) and 14.3 gr triple distilled water (TDW) were mixed using a magnetic stirrer for 10 min at 35-40° C. until a complete dissolution and acquisition of an aqueous solution.\nIt should be noted that among the various selected agents used for the preparation of the various formulations of the invention so far, cyclodextrin was proven to be incompatible in terms of a complete dissolution to obtain the aqueous phase as in Example 1, Stage 1.", "data": [{"substance": "cyclodextrin", "values": [{"measurement": "compatibility in terms of a complete dissolution to obtain the aqueous phase", "value": "incompatible"}]}]}
